One data set can be described thus: Toxicity studies. It is filed as in vivo, balb/c mice. As to the method:
Small animal models. For imaging and therapy studies, a U87MG subcutaneous mouse model was used. […] For toxicity studies, normal 5-6 week old balb/c mice (Envigo laboratories). All the animal studied were performed according to a protocol approved by the Institutional Animal Care and Use Committee (IACUC) of University of Georgia. Toxicity studies. Fifteen normal balb/c mice were randomly divided into 5 groups and received regimens specified in the in vivo therapy study section. The body weight and anal temperature of each mouse were measured daily at the same time (starting from 6 days before injection through Day 6). On Day 7, all mice were euthanized and the whole blood was collected. Part of the blood samples were used for a complete blood count (CBC) test. […] All tests were conducted by following the vendors' protocols. CRP and TNF-α kits were purchased from RayBiotech, ALT (MAK055) and AST (MAK052) kits from Sigma-Aldrich, and BUN from Arbor Assays. Each assay was repeated at least twice.

The next data set concerns U87MG tumors. Description: In vivo therapy study. Further details: species or system nude mice. The method, then:
Small animal models. For imaging and therapy studies, a U87MG subcutaneous mouse model was used. The animal model was established by subcutaneously inoculating 1 million U87MG cells onto the right hind leg or the right flank (for PET imaging only) of a 5-6 week old athymic female nude mice (Harlan). For toxicity studies, normal 5-6 week old balb/c mice (Envigo laboratories). All the animal studied were performed according to a protocol approved by the Institutional Animal Care and Use Committee (IACUC) of University of Georgia.
In vivo therapy study. Treatments started when tumor size reached 100-150 mm^3. 25 mice were randomly divided into 5 groups and were i.v. injected with PBS, free Dox, DSN-52 in PBS, MF cells, and DSN-MF cells on Day 0. Dox, DSN-52, and DSN-MF were injected at 3 mg Dox kg^−1, and 4 million cells were injected into the mice in MF and DSN-MF groups. The body weight and tumor volume of each mouse were measured every other day for 2 weeks. The tumor volume was calculated by the following equation: tumor volume=0.5×length×(width)^2, where length≥width. Mice were euthanized once the tumor volume was above 1,700 mm^3.

In another data set the test system is RAW264.7 cells. The data set is described as follows: Macrophage viability (MTT, Live/Dead Calcein AM/EthD-III). Format: cell-based. The settings on record: Mus musculus, RAW264.7 cells incubated 24 h. As to the method:
In vitro cellular loading studies. RAW264.7 (murine macrophages) and U87MG (human glioblastoma) were purchased from ATCC. RAW264.7 cells were cultured in RPMI1640 medium (Corning, USA) supplemented with 10% FBS (Corning, USA) and 1% penicillin-streptomycin (MediaTech, USA). During the nanoparticle loading stage, FBS-free RPMI1640 medium was used for culturing. U87MG cells were grown in DMEM medium (Corning, USA) supplemented with 10% FBS, 1% non-essential amino acids, and 1% penicillin-streptomycin. These two cell lines were incubated under 37° C. and 5% CO2 in a humid chamber. […] To determine the amount of Dox loaded into cells, DSN-laden cells were counted and then lysed by sonication in PBS (pH 5.0). The amounts of released Dox was measured by spectroscopic analysis. The Dox content on a per cell basis was calculated compared with macrophages without nanoparticle loading. […] To evaluate the impact of loaded DSNs on macrophages, the viability change was first assessed at different time points post nanoparticle loading by 3-(4,5-dimethythiazon-2-yl)-2,5-diphenyl tetrazolium bromide (MTT) assay or Live/Dead Cytotoxicity assay and the results were compared with normal macrophages. […]

These results are taken from US20210393538A1, “SILICA-BASED DRUG NANOCAPSULES” (priority 2018, published 2021).

Counter-ions that a name gives are not always drawn.

As a reminder, the IC50 is the concentration needed to halve the response being measured.

Consider `COc1cccc2c1C(=O)c1c(O)c3c(c(O)c1C2=O)C[C@@](O)(C(=O)CO)C[C@@H]3O[C@H]1C[C@H](N)[C@H](O)[C@H](C)O1` [Dox, doxorubicin hydrochloride salt], for which, in the data set “Toxicity studies” (CBC, Day 7), the Bands worked out at 12%, the HCT amounted to 48.9%, the HGB was 44.0 g/dL and the Lymphs is given as 82%. In “Toxicity studies” (CBC, Day 7), the MCH is reported as 31.6 pg, the MCHC was determined as 62 g/dL, the MCV is 15.4 fL and the Monos is given as 6%. Further, in the data set “Toxicity studies” (CBC, Day 7), the RBC was 1.39e+07 µL⁻¹, the Segs came to 0% and the WBC was found to be 13490 µL⁻¹. The “complete blood count (CBC) analysis, overall” value in “Toxicity studies” (Day 7) is “abnormalities”. For the same compound, the body weight change result in the data set “Toxicity studies” (normal balb/c mice, Day 2, hydrochloride salt) was “small degree of body weight loss”. Further, the “tumor growth inhibition (TGI) rate” value in the data set on U87MG tumors (Day 14, relative to the PBS group) is listed as 24.84%. The median survival with U87MG tumors (one i.v. dose on Day 0) turned out to be 16 days. Further, the “average tumor volume on Day 14” value in the data set with U87MG tumors (one i.v. dose on Day 0, 3 mg Dox kg^−1 and/or ˜4×10^6 cells per mouse) is given as 1328.6 mm^3. In addition, in the data set on RAW264.7 cells, the IC50 is 1.5 µg/mL.
